pKi: −log10 of the molar value.
Biological target: D(1B) dopamine receptor (Homo sapiens, UniProt P21918)
Test: Inhibition of dopamine D5 receptor (unknown origin)

Sequence of D(1B) dopamine receptor (P21918 whole entry): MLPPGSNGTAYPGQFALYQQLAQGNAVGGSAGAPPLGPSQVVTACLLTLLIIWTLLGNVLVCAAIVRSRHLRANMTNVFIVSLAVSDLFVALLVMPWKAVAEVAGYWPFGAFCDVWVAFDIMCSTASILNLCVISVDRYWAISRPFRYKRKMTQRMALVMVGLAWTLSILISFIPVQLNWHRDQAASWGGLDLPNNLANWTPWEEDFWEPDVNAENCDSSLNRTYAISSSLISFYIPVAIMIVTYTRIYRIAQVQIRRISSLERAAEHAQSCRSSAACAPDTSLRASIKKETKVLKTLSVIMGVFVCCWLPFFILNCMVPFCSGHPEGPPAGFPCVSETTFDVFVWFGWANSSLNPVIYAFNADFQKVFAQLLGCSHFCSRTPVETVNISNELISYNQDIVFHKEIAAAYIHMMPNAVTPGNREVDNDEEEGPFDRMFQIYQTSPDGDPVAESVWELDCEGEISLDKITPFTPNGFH

- pKi: 5.68
SMILES: CC(C)(C)C#Cc1ccc2c(c1)C=C([N+](=O)[O-])C(C(F)(F)F)O2 (stereo unspecified)
